Test results from the supplement of paper PMC10307832.

Assays:
Assay in all cases: relative viability (nuclei count vs DMSO), 5 days (fraction); higher = more cells survive
[1] = compound: Cc1ccc2nc(NCCN)c3ncc(C)n3c2c1 + C[C@@H](Oc1cc(-c2cnn(C3CCNCC3)c2)cnc1N)c1c(Cl)ccc(F)c1Cl [Crizotinib] (partner 1 µM)
How it was run: (§1)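 Relative viability divides the nuclei count in treated wells by that in vehicle wells. Lung cancer cell lines were seeded in 1536-well plates, dosed by pin tool the next day, and fixed and stained after 5 days in one step with final 0.05% Triton X-100, 1% formaldehyde and 1 ug/ml Hoechst. Dosing was a single drug or a fixed anchor-drug dose plus five library-drug doses (not always all listed) in √10 steps, and values are medians of duplicate plates imaged at 4×.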

[2] = compound: O=C(/C=C/c1ccccc1)NC(NC(=S)Nc1cccc2cccnc12)C(Cl)(Cl)Cl [Salubrinal] + O=C(CCCCCCC(=O)Nc1ccccc1)NO [Vorinostat] (partner 1 µM)
How it was run: as §1

[3] = compound: Cc1ccc2nc(NCCN)c3ncc(C)n3c2c1 + Nc1ncn([C@H]2C[C@H](O)[C@@H](CO)O2)c(=O)n1 [Decitabine] (partner 2 µM)
How it was run: as §1

[4] = compound: O=C(/C=C/c1ccccc1)NC(NC(=S)Nc1cccc2cccnc12)C(Cl)(Cl)Cl [Salubrinal] + Cc1cc(Nc2cc(N3CCN(C)CC3)nc(Sc3ccc(NC(=O)C4CC4)cc3)n2)n[nH]1 [Tozasertib] (partner 0.1 µM)
How it was run: as §1

Cell Line	relative viability ([1]; first compound 0.04 µM)	relative viability ([1]; first compound 0.1265 µM)	relative viability ([1]; first compound 0.4 µM)	relative viability ([1]; first compound 1.265 µM)	relative viability ([1]; first compound 4 µM)	relative viability ([2]; first compound 0.08 µM)	relative viability ([2]; first compound 0.253 µM)	relative viability ([2]; first compound 0.8 µM)	relative viability ([2]; first compound 2.53 µM)	relative viability ([2]; first compound 8 µM)	relative viability ([3]; first compound 0.04 µM)	relative viability ([3]; first compound 0.1265 µM)	relative viability ([3]; first compound 0.4 µM)	relative viability ([3]; first compound 1.265 µM)	relative viability ([3]; first compound 4 µM)	relative viability ([4]; first compound 0.08 µM)	relative viability ([4]; first compound 0.253 µM)	relative viability ([4]; first compound 0.8 µM)	relative viability ([4]; first compound 2.53 µM)	relative viability ([4]; first compound 8 µM)
NCI-H596	1.06	0.929	1.03	0.961	0.851	0.607	0.356	0.796	0.825	0.715	1.02	0.967	0.979	0.887	0.897	0.968	1.1	0.897	0.909	0.806
NCI-H322M	1.02	0.882	0.832	0.944	0.876	0.909	0.85	0.831	0.89	0.85	0.715	0.715	0.707	0.748	0.812	0.511	0.445	0.479	0.44	0.469
NCI-H647	1.29	1.03	1.12	0.93	0.852	0.546	0.547	0.773	0.504	0.683	0.508	0.362	0.43	0.421	0.335	0.418	0.287	0.319	0.288	0.009
NCI-H2170	1.17	1.14	1.1	1.21	1.06	0.861	0.742	0.923	0.956	0.638	0.473	0.442	0.433	0.448	0.461	1.02	0.778	0.783	0.77	0.665
NCI-H2085	1.01	0.77	0.879	0.848	0.87	0.832	0.785	0.837	0.771	0.878	0.56	0.556	0.522	0.534	0.524	0.96	0.776	0.854	0.588	0.77
SW 1573	0.924	0.792	0.704	0.895	0.659	0.852	0.686	0.778	0.55	0.62	0.593	0.497	0.547	0.637	0.37	0.176	0.172	0.155	0.194	0.151
NCI-H727	0.984	0.82	0.779	0.811	0.925	1.39	0.948	1.06	1.1	1.24	0.976		0.995	0.84	0.797	0.651	0.718	0.563	0.608	0.575
NCI-H441	0.904	0.665	0.684	0.617	0.947	0.824	0.563	1.18	0.605	0.616	0.235	0.245	0.191	0.26	0.235	0.554	0.431	0.74	0.576	0.448
LOU-NH91	0.753	0.714	0.748	0.727	0.749	0.933	0.925	1.08	0.903	0.841	0.814	0.807	0.808	0.827	0.797	0.794	0.639	0.626	0.706	0.59
NCI-H3122	0.291	0.304	0.293	0.286	0.318	1.16	1	0.989	1.05	1.09	0.4	0.449	0.377	0.541	0.421	0.416	0.387	0.591	0.387	0.428
NCI-H460	0.98	0.923	0.952	0.851	0.64	1.18	0.74	0.976	0.713	0.511	0.479	0.494	0.5	0.501	0.434	0.393	0.268	0.484	0.253	0.102
NCI-H650	0.855	0.608	0.718	0.583	0.672	0.477	0.494	0.382	0.48	0.404	0.332	0.326	0.31	0.269	0.331	0.81	0.768	0.798	0.687	0.704
NCI-H661	1.05	1.07	0.931	1.07	0.959	0.839	0.739	0.852	0.806	0.793	0.559	0.562	0.56	0.513	0.552	0.367	0.36	0.373	0.356	0.37
NCI-H1734	0.673	0.733	0.747	0.607	0.706	0.834	0.801	0.916	0.77	0.745	0.464	0.5	0.458	0.501	0.511	0.304	0.256	0.294	0.274	0.268
LXF-289	0.806	0.834	0.842	0.857	0.856	0.897	0.707	0.908	0.873	0.76	0.388	0.409	0.365	0.353	0.423	0.183	0.18	0.216	0.194	0.201
H3255	0.939	0.743	0.846	0.788	0.694	0.671	0.81	0.945	0.765	0.76	0.594	0.611	0.546	0.69	0.702	0.502	0.65	0.802	0.551	0.477
